Measured values from PMC8165439, “Chymase Dependent Pathway of Angiotensin II Generation and Rapeseed Derived Peptides for Antihypertensive Treatment of Spontaneously Hypertensive Rats” (Frontiers in Pharmacology, 2021).
“Also recorded” adds a separate entry of the source.

Legend:
[1] = test system: spontaneously hypertensive rats (SHR); experiment: Chronic iv treatment, systolic blood pressure by telemetry; format: in vivo, rat
Source text: Implantation of the telemetry transmitters for BP measurement: Seven days before the start of the chronic experiment all rats were implanted with telemetry probes for blood pressure monitoring (Data Science International, St. Paul, MN, United States). The transmitters (TA11PA-C10 dedicated for young animals or TA11PA-C40 for adult rats, Data Science International, St. Paul, MN, United States), were implanted under aseptic conditions, under sodium pentobarbital anesthesia (Sodium Pentobarbital, dose: 50 mg/kg ip, Biowet, Pulawy, Poland). The transmitter’s cannula was implanted into the aorta and transmitter’s body was placed inside the peritoneal cavity and fixed to the abdominal muscle wall. Metacam (0.4 mg/kg BW, Boehringer, Ingelheim, Germany) and Baytril (10 mg/kg BW, Bayer, Leverkusen, Germany) were used as post-operative analgesia and to prevent infection, respectively.
Implantation of cannulas for intravenous administration of selected substances: Four days before the start of the chronic experiment, the femoral vein was cannulated for chronic administration of the substances (Micro-Renathane MRE033, BIOSEB-In Vivo Research Instruments, United States/Canada), and the femoral artery was cannulated for blood sampling (Micro-Renathane Tubing MRE-025 and MRE033, BIOSEB-In Vivo Research Instruments, United States/Canada, respectively in young and adult rats). Both cannulas were filled with 4% Citra-Lock solution (Dirinco B.V, Ketelmeer 1, 5347 JX Oss, Netherlands) to prevent blood clotting and inflammation. After the surgery the post-operative treatment was applied as that for telemetric probe implantation.
Systolic and diastolic blood pressure (SBP and DBP, respectively) and heart rate (HR) were measured in conscious unrestrained rats by telemetry technique, once a week for 24 h. […] The diuresis, weight of feces, food and water intake were measured; urine and blood samples were collected on day 0, 7th and 14th, and were centrifuged at 1200 g (blood for 15 min and urine for 5 min), then the samples were stored at –80°C until analysis. […]

[2] = test system: spontaneously hypertensive rats (SHR); experiment: Plasma and urine parameters during chronic treatment; format: in vivo, rat; conditions: mean ± SEM
Procedure: Systolic and diastolic blood pressure (SBP and DBP, respectively) and heart rate (HR) were measured in conscious unrestrained rats by telemetry technique, once a week for 24 h. 24 hour observations in metabolic cages (Tecniplast S. p.A. Buguggiate, Italy) were performed weekly. The diuresis, weight of feces, food and water intake were measured; urine and blood samples were collected on day 0, 7th and 14th, and were centrifuged at 1200 g (blood for 15 min and urine for 5 min), then the samples were stored at –80°C until analysis.
On day 0 all animals received saline (0.9% NaCl) and then, for 14 consecutive days, the substance tested. Chymostatin (CH, 2 mg/kg/day) was dissolved in DMSO and then diluted with PBS (final concentration of DMSO was 0.15%). Peptides RIY (7.5 mg/kg/day) and VWIS (12.5 mg/kg/day) were dissolved in saline (0.9% NaCl, S). The substances were administered through the femoral vein during 10 min in the volume of 0.5 ml to young SHR (infusion rate: 3 ml/h) and 1 ml to adult rats (infusion rate: 6 ml/h). Control rats received solvents (either DMSO or saline) in the same volume.
Urine volume was determined by gravimetric method. Sodium and potassium concentration in urine and plasma were measured by flame photometry (PFP7/C, Jenway Ltd, Stone, United Kingdom). Urine and plasma osmolality were measured by freezing point depression (Osmomat® 030 M, Gonotec, Berlin, Germany). These parameters were used to determine the excretion rates of total solutes (UosmV), sodium (UNaV) and potassium (UKV). Commercially available ELISA kits were used to measure nitric oxide metabolites (NOx, SunRed, Shanghai) and albumin (Albumin, ICL, Portland) concentration in urine. Excretion rate of NOx (UNOxV) and albumin (UAE) were calculated.

[3] = adult SHR (SHR-16), day 0 (baseline)
[4] = adult SHR (SHR-16), day 7 of daily iv treatment
[5] = adult SHR (SHR-16), day 14 of daily iv treatment
[6] = young SHR (SHR-6), day 0 (baseline)
[7] = young SHR (SHR-6), day 7 of daily iv treatment
[8] = young SHR (SHR-6), day 14 of daily iv treatment

For `CC(C)C[C@H](NC(=O)[C@@H](NC(=O)N[C@@H](Cc1ccccc1)C(=O)O)[C@@H]1CCN=C(N)N1)C(=O)N[C@H](C=O)Cc1ccccc1` [CH, chymostatin], the “effect on systolic blood pressure (SBP) in adult SHR” value ([1]; adult SHR (16 weeks old), daily iv for 14 days, CH 2, RIY 7.5, VWIS 12.5 mg/kg/day) was “no sustained decrease in arterial blood pressure; also recorded: significant increase in SBP”, the “period of transient BP reduction post-infusion” value ([1]; adult SHR, chronic intravenous infusion of chymostatin 2 mg/kg/day) was ≤ 7 h and the “effect on blood pressure (SBP) in young animals” value ([1]; young SHR (6 weeks old), daily iv for 14 days, CH 2, RIY 7.5, VWIS 12.5 mg/kg/day) was “Neither of the inhibitors applied (chymostatin and the both rapeseed-derived peptides) affected blood pressure”. For the same compound, the Plasma osmolality ([2]; adult SHR (SHR-16), day 0 (baseline), CH n=5-8, RIY n=5-6, VWIS n=5-6) was 307±2 mOsm/l, the “Plasma K+ concentration” value [2, 3] was 4.39 ± 0.27 mmol/L and the “Plasma Na+ concentration” value [2, 3] was 134.6 ± 2.6 mmol/L. For the same compound, the Potassium excretion [2, 3] was 1.28 ± 0.19 µmol/min, the Sodium excretion [2, 3] was 1.01 ± 0.13 µmol/min and the Total solute excretion [2, 3] was 7.05±0.90 µOsm/min. The Plasma osmolality ([2]; adult SHR (SHR-16), day 7 of daily iv CH 2, RIY 7.5, VWIS 12.5 mg/kg/day) was 299±2 mOsm/l, the “Plasma K+ concentration” value [2, 4] was 4.21 ± 0.10 mmol/L and the “Plasma Na+ concentration” value [2, 4] was 130.5 ± 2.3 mmol/L. For the same compound, the Potassium excretion [2, 4] was 1.24 ± 0.25 µmol/min, the Sodium excretion [2, 4] was 0.77 ± 0.23 µmol/min and the Total solute excretion [2, 4] was 7.11±1.34 µOsm/min. The Plasma osmolality ([2]; adult SHR (SHR-16), day 14 of daily iv CH 2, RIY 7.5, VWIS 12.5 mg/kg/day) was 294±5 mOsm/l, the “Plasma K+ concentration” value [2, 5] was 3.95 ± 0.20 mmol/L and the “Plasma Na+ concentration” value [2, 5] was 126.1 ± 1.0 mmol/L. It also gave a Potassium excretion [2, 5] of 1.71 ± 0.15 µmol/min, a Sodium excretion [2, 5] of 1.11 ± 0.33 µmol/min and a Total solute excretion [2, 5] of 7.04±1.15 µOsm/min. The Plasma osmolality ([2]; young SHR (SHR-6), day 0 (baseline), CH n=8-10, RIY n=5, VWIS n=5-6) was 303±3 mOsm/l, the “Plasma K+ concentration” value [2, 6] was 4.34 ± 0.16 mmol/L and the “Plasma Na+ concentration” value [2, 6] was 125.8 ± 2.1 mmol/L. The Potassium excretion [2, 6] was 0.48 ± 0.08 µmol/min, the Sodium excretion [2, 6] was 0.51 ± 0.09 µmol/min and the Total solute excretion [2, 6] was 2.94±0.68 µOsm/min. For the same compound, the Plasma osmolality ([2]; young SHR (SHR-6), day 7 of daily iv CH 2, RIY 7.5, VWIS 12.5 mg/kg/day) was 297±3 mOsm/l, the “Plasma K+ concentration” value [2, 7] was 4.61 ± 0.12 mmol/L and the “Plasma Na+ concentration” value [2, 7] was 126.0 ± 2.3 mmol/L. For the same compound, the Potassium excretion [2, 7] was 0.95 ± 0.12 µmol/min, the Sodium excretion [2, 7] was 0.90 ± 0.12 µmol/min and the Total solute excretion [2, 7] was 6.05±1.16 µOsm/min. The Plasma osmolality ([2]; young SHR (SHR-6), day 14 of daily iv CH 2, RIY 7.5, VWIS 12.5 mg/kg/day) was 295±6 mOsm/l, the “Plasma K+ concentration” value [2, 8] was 3.98 ± 0.13 mmol/L and the “Plasma Na+ concentration” value [2, 8] was 126.0 ± 1.6 mmol/L. The Potassium excretion [2, 8] was 1.01 ± 0.60 µmol/min, the Sodium excretion [2, 8] was 0.93 ± 0.47 µmol/min and the Total solute excretion [2, 8] was 7.82±0.47 µOsm/min.
